Strand notation (5' to 3'): a small letter for the sugar, then the base; units joined by * are phosphorothioate-linked, units joined directly phosphodiester-linked; [ ] holds rarer units or linkages, { } end groups; capitals alone tell only the bases. e = 2'-O-(2-methoxyethyl) (MOE); k = constrained ethyl (cEt); [5mC] = 5-methylcytosine; d = 2'-deoxy (DNA); m = 2'-O-methyl
Tested on: Yap1 mRNA
Test: Antisense inhibition of human Yap1 in SNU-449 cells by modified oligonucleotides, single dose (Example 5, RTS36584)
Type: cell-based
Settings: Table 39; SNU-449 cells, 10,000 cells per well, free uptake, 2,000 nM oligonucleotide, approx. 48 hours; RTS36584; normalized to RIBOGREEN; Yap1 mRNA relative to untreated control
In short: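 Free uptake, 2,000 nM, ~48 h, SNU-449 at 10,000 cells/well. Read-out: qRT-PCR (RTS36584), RIBOGREEN-normalised, expressed as % UTC. Asterisk = oligo hits amplicon region.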

Row | Substance | YAP1 (% UTC)
1 | 1095397 (antisense kT*dG*dA*dG*dG*dT*dA*dT*dA*dA*d[5mC]*kT*eG*kG*eG*k[5mC]) [Compound 1095397] | 53 % UTC
2 | 1198392 (kA*dA*d[5mC]*dA*d[5mC]*dT*dG*dA*dG*dG*dT*kA*eT*kA*eA*k[5mC]; antisense) [Compound 1198392] | 48 % UTC

Same assay, conditions: Table 40 (separate experiment); SNU-449 cells, 10,000 cells per well, free uptake, 2,000 nM oligonucleotide, approx. 48 hours; RTS36584; normalized to RIBOGREEN; Yap1 mRNA relative to untreated control

Row | Substance | YAP1 (% UTC)
3 | 1198784 (antisense kT*eA*kT*dG*dT*dA*dA*dT*dA*dT*dT*dG*e[5mC]*eA*kA*kT) [Compound 1198784] | 94 % UTC
4 | 1198783 (antisense kA*eT*kG*dT*dA*dA*dT*dA*dT*dT*dG*d[5mC]*eA*eA*kT*k[5mC]) [Compound 1198783] | 78 % UTC
5 | 1198759 (kA*eG*kG*dA*dT*dG*d[5mC]*dA*dT*dG*dG*dT*eT*eT*kT*kT; antisense) [Compound 1198759] | 27 % UTC
6 | 1198752 (kT*eT*kT*dG*dG*dA*dA*dG*dA*dT*d[5mC]*dT*eG*eA*kA*kA; antisense) [Compound 1198752] | 111 % UTC
7 | 1198720 (kT*eG*kG*dA*dA*dA*dT*dT*dG*dT*d[5mC]*dT*e[5mC]*eA*kT*kG; antisense) [Compound 1198720] | 21 % UTC
8 | 1198777 (kA*eT*kT*dG*d[5mC]*dA*dA*dT*d[5mC]*dT*dG*dT*e[5mC]*eT*kG*kA; antisense) [Compound 1198777] | 84 % UTC

Same assay, conditions: Table 41; SNU-449 cells, 10,000 cells per well, free uptake, 2,000 nM modified oligonucleotide, approximately 48 hours; RTS36584; normalized to RIBOGREEN; Yap1 mRNA relative to untreated control cells

Row | Substance | YAP1 (% UTC)
9 | 1198794 (antisense kA*eA*k[5mC]*dT*dT*dT*dA*dA*dA*dG*dT*dG*eT*eA*kT*kG) [Compound 1198794] | 74 % UTC
10 | 1198688 (antisense kA*kT*dA*dT*dT*dG*d[5mC]*dA*dA*dT*d[5mC]*dT*kG*eT*k[5mC]*eT) [Compound 1198688] | 48 % UTC
11 | 1198638 (kA*kG*dA*dG*dT*dA*dT*dG*dT*dG*dG*d[5mC]*kA*eA*kT*eA; antisense) [Compound 1198638] | 18 % UTC
12 | 1198769 (kT*eT*kA*dT*dA*dT*dG*dG*dT*dT*dT*dT*eG*eT*kG*kT; antisense) [Compound 1198769] | 77 % UTC
13 | 1198792 (antisense kT*eT*kT*dA*dA*dA*dG*dT*dG*dT*dA*dT*eG*eT*k[5mC]*kA) [Compound 1198792] | 48 % UTC

Same assay, conditions: Table 42 (separate experiment); SNU-449 cells, 10,000 cells per well, free uptake, 2,000 nM modified oligonucleotide, approximately 48 hours; RTS36584; normalized to RIBOGREEN; Yap1 mRNA relative to untreated control cells

Row | Substance | YAP1 (% UTC)
14 | 1198708 (kT*kA*dA*dG*dT*dA*dA*dG*dG*dT*dT*dT*k[5mC]*e[5mC]*k[5mC]*eA; antisense) [Compound 1198708] | 34 % UTC
15 | 1198646 (kT*kA*dT*dA*dA*d[5mC]*dT*dG*dG*dG*d[5mC]*dA*kA*eA*kT*eT) [Compound 1198646] | 80 % UTC
16 | 1198206 (kA*kT*dA*dT*dG*dG*dA*dA*dA*dT*dT*eG*eT*e[5mC]*kT*k[5mC]; antisense) [Compound 1198206] | 43 % UTC
17 | 1198703 (k[5mC]*kT*dT*dT*dA*dA*dA*dG*dT*dG*dT*dA*kT*eG*kT*e[5mC]; antisense) [Compound 1198703] | 42 % UTC
18 | 1198212 (kT*kA*dT*dT*dA*dG*dA*dG*dT*dA*dT*eG*eT*eG*kG*k[5mC]; antisense) [Compound 1198212] | 17 % UTC

Same assay, conditions: Table 43 experiment; SNU-449 cells, 10,000 cells per well, free uptake, 2,000 nM, approximately 48 hours; RTS36584; Yap1 mRNA normalized to RIBOGREEN, relative to untreated control cells

Row | Substance | YAP1 (% UTC)
19 | 1198261 (kG*kT*dA*dA*dT*dA*dT*dT*dG*d[5mC]*dA*eA*eT*e[5mC]*kT*kG; antisense) [Compound 1198261] | 54 % UTC
20 | 1198469 (antisense kA*kT*dT*dA*dG*dA*dG*dT*dA*dT*dG*eT*kG*eG*k[5mC]*eA) [Compound 1198469] | 23 % UTC
21 | 1198256 (kG*kA*d[5mC]*dA*dA*d[5mC]*dT*d[5mC]*dT*dT*dA*eT*eA*eT*kG*kG; antisense) [Compound 1198256] | 78 % UTC
22 | 1095595 (antisense k[5mC]*kA*d[5mC]*dT*dG*dA*dG*dG*dT*dA*dT*eA*eA*e[5mC]*kT*kG) [Compound 1095595] | 63 % UTC

Same assay, conditions: Table 45; Yap1 mRNA as percent of untreated control, SNU-449 cells, single dose

Row | Substance | YAP1 (% UTC)
23 | 1198972 (kA*k[5mC]*dT*dA*dA*dG*dT*dA*dA*dG*dG*kT*dT*kT*d[5mC]*k[5mC]; antisense) [Compound 1198972] | 46 % UTC
24 | 1198949 (kA*kT*dT*dG*d[5mC]*dA*dA*dT*d[5mC]*dT*dG*kT*d[5mC]*kT*dG*kA; antisense) [Compound 1198949] | 61 % UTC
25 | 1198921 (kT*kT*dA*dA*dG*d[5mC]*dA*d[5mC]*dT*dT*dT*kT*dA*k[5mC]*dA*kT; antisense) [Compound 1198921] | 89 % UTC

Same assay, conditions: Table 46; Yap1 mRNA as percent of untreated control, SNU-449 cells, single dose

Row | Substance | YAP1 (% UT)
26 | 1198837 (kT*kT*dG*dG*dA*dA*dG*dA*dT*d[5mC]*dT*kG*eA*kA*eA*k[5mC]; antisense) [Compound 1198837] | 66 % UT
27 | 1198814 (antisense kA*kG*dA*dG*dT*dA*dT*dG*dT*dG*dG*k[5mC]*eA*kA*eT*kA) [Compound 1198814] | 13 % UT
28 | 1198849 (kG*kA*dT*dT*dT*dA*dG*dG*dA*dT*dG*k[5mC]*eA*kT*eG*kG; antisense) [Compound 1198849] | 42 % UT
29 | 1198827 (kT*kT*dA*d[5mC]*dA*dT*dT*dA*dG*dG*dA*kA*e[5mC]*kA*eA*kG; antisense) [Compound 1198827] | 60 % UT
30 | 1198868 (kT*kG*dT*dA*dA*dT*dA*dT*dT*dG*d[5mC]*kA*eA*kT*e[5mC]*kT; antisense) [Compound 1198868] | 49 % UT
31 | 1198888 (kA*kG*dA*d[5mC]*dT*dA*dA*dG*dT*dA*dA*kG*eG*kT*eT*kT; antisense) [Compound 1198888] | 51 % UT

Same assay, conditions: Table 48; Yap1 mRNA level relative to untreated control; modified oligonucleotides targeting SEQ ID NO.: 1 and 2

Row | Substance | YAP1 (% UT)
32 | 1198309 (k[5mC]*kT*kT*dT*dT*dA*d[5mC]*dA*dT*dT*dA*dG*kG*eA*kA*e[5mC]; antisense) [Compound 1198309] | 85 % UT
33 | 1198324 (kA*kT*kA*dG*dT*dG*d[5mC]*dT*dT*dT*dG*dG*kA*eA*kG*eA; antisense) [Compound 1198324] | 53 % UT

Same assay, conditions: Table 49; Yap1 mRNA level relative to untreated control; modified oligonucleotides targeting SEQ ID NO.: 1 and 2

Row | Substance | YAP1 (% UT)
34 | 1198335 (kT*kT*kA*dT*dA*dT*dG*dG*dT*dT*dT*dT*kG*eT*kG*eT; antisense) [Compound 1198335] | 26 % UT
35 | 1198361 (kT*kA*kA*dG*dG*dT*dT*dT*d[5mC]*d[5mC]*d[5mC]*dA*kG*eA*kT*eT; antisense) [Compound 1198361] | 39 % UT
36 | 1198368 (kA*kG*kA*d[5mC]*dT*dA*dA*dG*dT*dA*dA*dG*kG*eT*kT*eT; antisense) [Compound 1198368] | 79 % UT

Same assay, conditions: Table 50; Yap1 mRNA remaining as percent of untreated control (UT), SNU-449 cells, single dose

Row | Substance | YAP1 (% UT)
37 | 1198609 (antisense kT*kT*kT*dA*dT*dG*dT*dA*dA*dT*dA*dT*kT*kG*k[5mC]*eA) [Compound 1198609] | 52 % UT
38 | 1198590 (antisense kT*k[5mC]*kA*dG*dA*dT*dT*dT*dA*dG*dG*dA*kT*kG*k[5mC]*eA) [Compound 1198590] | 46 % UT
39 | 1198614 (antisense kT*kA*kA*dA*dG*dT*dG*dT*dA*dT*dG*dT*k[5mC]*kA*kG*eA) [Compound 1198614] | 4 % UT
40 | 1198597 (antisense kA*k[5mC]*kT*d[5mC]*dT*dT*dA*dT*dA*dT*dG*dG*kT*kT*kT*eT) [Compound 1198597] | 27 % UT

Same assay, conditions: Table 51; Yap1 mRNA remaining as percent of untreated control (UT), SNU-449 cells, single dose

Row | Substance | YAP1 (% UT)
41 | 1197295 (G_{ks}^{m}C_{ks}T_{ks}T_{ds}U_{ys}G_{ds}G_{ds}A_{ds}A_{ds}G_{ds}A_{ds}T_{ds}C_{ds}T_{ks}G_{ks}A_{k}; as printed in the source, key not given here) [Compound 1197295] | 24 % UT
42 | 1197307 (kA*kT*kA*dT*mU*dG*d[5mC]*dA*dA*dT*d[5mC]*dT*dG*kT*k[5mC]*kT; antisense) [Compound 1197307] | 88 % UT
43 | 1197309 (kG*kT*kA*dA*mU*dA*dT*dT*dG*d[5mC]*dA*dA*dT*k[5mC]*kT*kG; antisense) [Compound 1197309] | 11 % UT
44 | 1197243 (antisense kA*kA*k[5mC]*dA*mC*dT*dG*dA*dG*dG*dT*dA*dT*kA*kA*k[5mC]) [Compound 1197243] | 81 % UT
45 | 1197297 (GTGCUTTGGAAGATCT; cEt/MOE gapmer, phosphorothioate, 5-methylcytosine, chemistry not fully specified) [Compound 1197297] | 25 % UT

Same assay, conditions: Table 52; Yap1 mRNA, modified oligonucleotides targeting SEQ ID NO: 1 and 2

Row | Substance | YAP1 (% UT)
46 | 1200791 (kA*kT*kG*dG*dA*mA*dA*dT*dT*dG*dT*d[5mC]*dT*k[5mC]*kA*kT; antisense) [Compound 1200791] | 46 % UT

Same assay, conditions: Yap1 mRNA, percent of untreated control; modified oligonucleotides targeting SEQ ID NO: 1 and 2; Table 47

Row | Substance | YAP1 (% UT)
47 | 1198860 (kA*kA*d[5mC]*dT*d[5mC]*dT*dT*dA*dT*dA*dT*kG*eG*kT*eT*kT; antisense) [Compound 1198860] | 82 % UT
48 | 1197177 (antisense kA*kT*kT*dG*dT*d[5mC]*dT*d[5mC]*dA*dT*dG*d[5mC]*d[5mC]*kT*kT*kA) [Compound 1197177] | 15 % UT
49 | 1197183 (antisense kA*k[5mC]*kT*dT*dT*dT*dA*d[5mC]*dA*dT*dT*dA*dG*kG*kA*kA) [Compound 1197183] | 41 % UT
